Drawing on PubChem BioAssay (NCI), this text covers TGI and GI50 for 16 molecules.

“And” between values parts separate entries of the source, which are not always exact repeats. Equal values may be shown once.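 Where inhibition never reached the appropriate level, the endpoint shown equals the highest concentration tested. Otherwise, values were interpolated linearly from a five-concentration, 48-hour dose response in 96-well plates. GI50 = concentration required for 50% inhibition of growth. TGI marks complete inhibition of growth.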 Some results are limits rather than exact numbers.

Some test systems named below: NCI-H226 lung; OVCAR-3 ovarian; 786-0 renal; HL-60(TB) leukemia; U251 CNS; MALME-3M melanoma; SR leukemia; NCI-H460 lung; SN12C renal.
Assay in all cases: DTP human tumour cell line panel, 48 h

For the molecule `O=CN1CCN(c2ccc3ccc(=O)[nH]c3n2)CC1`, the TGI in the assay on NCI-H226 lung, in the assay with OVCAR-3 ovarian, in the assay on 786-0 renal, in the assay with HL-60(TB) leukemia, in the assay on U251 CNS and with MALME-3M melanoma was more than 100 µM throughout. Also, the concentration for total growth inhibition (TGI) in the assay with SR leukemia, in the assay on NCI-H460 lung and in the assay with SN12C renal was more than 100 µM throughout.
Consider `OCCc1ccsc1-c1sc(-c2cc(CCO)c(-c3sc(-c4cc(CCO)c(-c5sccc5CCO)s4)cc3CCO)s2)cc1CCO`, for which the TGI (usually the concentration giving total growth inhibition) in the assay with NCI-H226 lung came to 3.86 µM; with OVCAR-3 ovarian, 2.72 µM; with 786-0 renal, 2.14 µM; in the assay on HL-60(TB) leukemia it was 3.61 µM; with U251 CNS, 2.6 µM; in the assay with MALME-3M melanoma, 2.36 µM. In addition, the concentration for total growth inhibition (TGI) worked out at 2.59 µM in the assay with SR leukemia and 2.95 µM with NCI-H460 lung.
On to `C[N+]1(C)CCCC(C#N)(c2ccccc2)CC1` (stereo unspecified), for which the TGI with 786-0 renal, with HL-60(TB) leukemia, with U251 CNS, in the assay on MALME-3M melanoma, with SR leukemia and in the assay on NCI-H460 lung was more than 100 µM in each case.
In the case of `CNC(=O)[C@H](Cc1ccccc1)NC(=O)N(CCC#N)CCN(C(=O)N[C@@H](Cc1ccccc1)C(=O)OC)c1ccccc1`, the total growth inhibition concentration (TGI) in the assay with NCI-H226 lung, in the assay on OVCAR-3 ovarian, in the assay on 786-0 renal, in the assay with HL-60(TB) leukemia, in the assay on U251 CNS and in the assay with MALME-3M melanoma was more than 100 µM in each case. Moreover, the TGI with SR leukemia and in the assay with NCI-H460 lung was more than 100 µM in each case.
On to `C[C@]12CC[C@H]3[C@@H](CC=C4C[C@@H](O)CC[C@@]43C)[C@@H]1C/C(=C\c1cccnc1)[C@@H]2O`, for which the TGI is 57.4 µM in the assay with NCI-H226 lung; 96 µM with 786-0 renal; 28.7 µM with U251 CNS; more than 100 µM with MALME-3M melanoma; more than 100 µM in the assay with SR leukemia; more than 100 µM in the assay with NCI-H460 lung. The TGI with SN12C renal turned out to be 55.2 µM.
`CCOC(=O)C(O)(CC1=NC(C(=O)OC)(C(=O)OC)C(c2cccc(C=O)c2)O1)C(=O)OCC` (stereo unspecified): the TGI with NCI-H226 lung, in the assay on OVCAR-3 ovarian, in the assay with 786-0 renal, with HL-60(TB) leukemia, in the assay with U251 CNS and in the assay with SR leukemia was more than 100 µM each time. Further, the TGI in the assay with NCI-H460 lung and in the assay on SN12C renal was more than 100 µM throughout.
For the molecule `CC(C)c1cc(=O)[nH]c2cc(N)ccc12`, the concentration for total growth inhibition (TGI) in the assay on NCI-H226 lung, in the assay with OVCAR-3 ovarian, in the assay on 786-0 renal, with U251 CNS, in the assay with SR leukemia and in the assay with NCI-H460 lung was more than 100 µM each time. Further, the total growth inhibition concentration (TGI) in the assay with SN12C renal was more than 100 µM.
Take `CN(C)S(=O)(=O)c1ccc2[nH]c(O)c(C3=Nc4ccccc4C3=O)c2c1`: the TGI was 81.3 µM in the assay on NCI-H226 lung; more than 100 µM in the assay with OVCAR-3 ovarian; 50.3 µM with 786-0 renal; 24.9 µM in the assay on U251 CNS; more than 100 µM with MALME-3M melanoma; 35.9 µM with SR leukemia. Further, the TGI with NCI-H460 lung was 97.5 µM; in the assay with SN12C renal, more than 100 µM.
Regarding `O=C1c2cc3c(cc2NC(c2ccccc2F)C1O)OCO3` (stereo unspecified), the concentration for total growth inhibition (TGI) is more than 64.7 µM with NCI-H226 lung; more than 62.7 µM with OVCAR-3 ovarian; 48.1 µM with 786-0 renal; more than 68 µM with U251 CNS; more than 100 µM in the assay with MALME-3M melanoma; more than 37.9 µM with SR leukemia. Besides, the TGI with NCI-H460 lung is more than 100 µM; with SN12C renal it was more than 66.9 µM.
`C=CCOCC1C2CCC3(OCCO3)C21` (stereo unspecified): the TGI with NCI-H226 lung, with OVCAR-3 ovarian, in the assay with 786-0 renal, in the assay with U251 CNS, in the assay with MALME-3M melanoma and in the assay with SR leukemia was more than 100 µM throughout. For the same molecule, the concentration for total growth inhibition (TGI) in the assay with NCI-H460 lung and with SN12C renal was more than 100 µM throughout.
As for `O=C(O)CN1C(=O)c2ccc(NC(=O)C(=O)O)cc2S1(=O)=O`, the concentration for total growth inhibition (TGI) in the assay with NCI-H226 lung, with 786-0 renal, with HL-60(TB) leukemia, in the assay with U251 CNS, with MALME-3M melanoma and in the assay on SR leukemia was more than 100 µM throughout. In addition, the concentration for total growth inhibition (TGI) in the assay on NCI-H460 lung and with SN12C renal was more than 100 µM each time.
As for `CN(CCN)[C@H](CSSC[C@@H](c1ccccc1O)N(C)CCN)c1ccccc1O`, the TGI in the assay with NCI-H226 lung was 35.4 µM; in the assay with OVCAR-3 ovarian it was 28.6 µM; in the assay on 786-0 renal, 32.6 µM; in the assay on U251 CNS, more than 47.8 µM; in the assay on MALME-3M melanoma, 33.3 µM; with SR leukemia, 11.5 µM. Moreover, the TGI in the assay on NCI-H460 lung amounted to 24.4 µM; in the assay on SN12C renal, 23.2 µM.
As for `NCCCN(CCCCN(CCCN)CCCc1ccccc1)CCCc1ccccc1`, the TGI with NCI-H226 lung stood at 38.8 µM; in the assay with OVCAR-3 ovarian it was 3.34 µM; in the assay on 786-0 renal, 2.91 µM; in the assay on HL-60(TB) leukemia, 7.44 µM; in the assay on U251 CNS, 4.19 µM; in the assay with SR leukemia, 7.19 µM. The TGI with NCI-H460 lung was determined as 2.72 µM; in the assay on SN12C renal it was 16.9 µM.
As for `CCCC(=O)Nc1cc(C(=O)N2C[C@H]3C[C@@]34C2=CC(=O)c2[nH]cc(C)c24)n(COC)c1`, the TGI in the assay with NCI-H226 lung turned out to be 5.18 µM; in the assay with OVCAR-3 ovarian it was 0.688 µM; in the assay with 786-0 renal, 5.82 µM; in the assay on HL-60(TB) leukemia, 0.23 µM; with MALME-3M melanoma it was 0.439 µM; with SR leukemia, 0.0236 µM. Moreover, the TGI with SN12C renal was 4.18 µM and 0.684 µM. The 50% growth inhibitory concentration (GI50) (in general, the concentration at which growth is held to half of that of the control) in the assay with NCI-H460 lung was 0.135 µM; with SN12C renal, 0.168 µM.
As for `CCOC(=O)C1=C(O)CC(=O)N=C1N1CCCC1`, the total growth inhibition concentration (TGI) in the assay with NCI-H226 lung, in the assay with OVCAR-3 ovarian, with 786-0 renal, with HL-60(TB) leukemia, with U251 CNS and with MALME-3M melanoma was more than 100 µM throughout. Besides, the TGI in the assay on SR leukemia and in the assay on SN12C renal was more than 100 µM each time.
For the molecule `CCOC(=O)Cc1c(C(=O)OCC)[n+](=O)c2cc(Cl)c(Cl)cc2n1[O-]`, the TGI in the assay on OVCAR-3 ovarian is 5.04 µM; with 786-0 renal, 3.84 µM; in the assay on HL-60(TB) leukemia, 5.74 µM; with U251 CNS, 9.67 µM; in the assay with MALME-3M melanoma, 3.21 µM; in the assay on SR leukemia, 2.11 µM. For the same molecule, the results for the TGI with NCI-H460 lung and with SN12C renal were 3.46 µM and 6.95 µM, respectively.
